# According to publication PMC6872687, “Potential for imaging the high-affinity state of the 5-HT1B receptor: a comparison of three PET radioligands with differing intrinsic activity” (EJNMMI Research, 2019):
# Values joined by “and” are separate entries in the source; they are usually repeats but may differ in a detail not shown here. Equal entries are not always repeated. Where two headings read alike, the source gives them in different places.
# How the values were obtained:
# 5-HT1B receptor [1] = target: T1, 5-HT1B receptor (Homo sapiens, UniProt P28222); assay: GTPγ35S binding assay for EC50 and intrinsic activity (agonist/antagonist efficacy); format: biochemical; conditions: data provided by AstraZeneca; for Agonist effect / Antagonist effect: measured at 10 μM
# Description: EC50 values and intrinsic activity (antagonist/agonist efficacy) were measured by comparing 5-HT1B receptor ability to bind GTPγ^35S when stimulated with 5-HT. The agonist/antagonist effect (percentage) was measured at 10 μM and EC50 in a range from 10 μM to 170 pM. EC50 was determined as the concentration at half the maximum of the dose-response curve.
# 5-HT1B receptor [2] = assay: PET displacement by fenfluramine-induced endogenous 5-HT release in NHP brain; format: in vivo, cynomolgus monkey; conditions: for Specific binding (45-123 min) in the occipital cortex: baseline PET
# Description: (§1) Three female cynomolgus monkeys were supplied by Astrid Fagraeus Laboratory at the Karolinska Institutet (Solna, Sweden). Anesthesia was initiated via intramuscular injection of ketamine hydrochloride (ca. 10 mg/kg) and after, intubation was maintained by the administration of a mixture of sevoflurane, oxygen, and medical air.
# (§2) The NHPs were observed continuously during the days of PET measurements. Body temperature was maintained by Bair Hugger-Model 505 (Arizant Healthcare Inc., MN) and monitored with an esophageal thermometer. Heart rate, blood pressure, respiratory rate, and oxygen saturation were continuously monitored throughout the experiments. Fluid balance was maintained by a continuous infusion of saline. The NHP head was fixed in position throughout PET data acquisition as described previously. PET measurements were conducted using a high-resolution research tomograph (Siemens). Radioactivity in the brain was measured continuously for 123 min after radioligand injection according to a preprogrammed series of 34 frames.
# PET measurements using fenfluramine to evaluate the sensitivity of [^11C]1 and [^11C]3 towards endogenous 5-HT release followed an identical procedure for two NHPs (weight 6.8 and 7.0 kg). Each NHP was used in a baseline and a displacement PET measurement with intravenous infusion of fenfluramine over 5 min starting 15 min after injection of the same radioligand as used in the baseline measurement. The dose of fenfluramine was 1 mg/kg (i.v.) for both radioligands and 5 mg/kg (i.v.) for [^11C]3 only. After an unexpected complication, the study was limited to be concluded only at the lower dose level. In summary, results for [^11C]1 were acquired from this study (1 mg/kg of fenfluramine) and from Lindberg et al. (5.0 mg/kg of fenfluramine), [15] results for [^11C]2 were exclusively acquired from Finnema et al., and all results for [^11C]3 were acquired from this study. The experimental procedure in this study was designed to replicate the procedure described by Finnema et al..
# (§3) Average PET images were manually co-registered to a T1-weighted brain magnetic resonance (MR) image previously obtained for each monkey. The co-registration parameters were applied to the dynamic PET data. Regions of interest (ROI) were delineated manually for the whole brain, occipital cortex, globus pallidus, caudate nucleus, putamen, ventral striatum (nucleus accumbens), cerebellum, frontal cortex, midbrain, thalamus, and hippocampus. Regional radioactivity was expressed as standardized uptake value (SUV), which was calculated as uptake (becquerels/milliliter)/injected radioactivity (becquerels) × body weight (grams).
# (§4) The cerebellum was used as a reference region because this region has negligible density of 5-HT1B receptors. Specific binding to the 5-HT1B receptor was defined as the difference between the total radioactivity concentration in the target brain region and that in the cerebellum, each using the area under the time-radioactivity curve for the scan interval 45–123 min. The binding potential (BPND) was defined as the ratio of specific binding to the radioactivity concentration in the cerebellum, calculated by simplified reference tissue model (SRTM).
# 5-HT1B receptor [3] = assay: PET baseline and AR-A000002 pretreatment measurement of specific binding in NHP brain; format: in vivo, cynomolgus monkey
# Description: as §1, §2
# In an initial PET study to evaluate the specific binding of [^11C]3, one NHP (weight 6.9 kg) was used in a baseline measurement. This monkey was also used in a pretreatment paradigm in which the 5-HT1B antagonist AR-A000002 (AZ10419427; 2.0 mg/kg) was intravenously infused over 6 min starting at 30 min before radioligand injection.
# as §3, §4
# [4] = logD (in vitro data, Fig. 1); format: physicochemical; conditions: data provided by AstraZeneca
# 5-HT1B receptor [5] = target: T1, 5-HT1B receptor; assay: 5-HT1B receptor affinity (in vitro data, Fig. 1); format: binding; conditions: data provided by AstraZeneca
# 5-HT1B receptor [6] = test system: 5-HT1B receptor; parameters: method as in PMID 20222157; conditions: baseline PET; results for [11C]2 acquired from Finnema et al.; cited from earlier work
# [7] = fenfluramine 1.0 mg/kg i.v. 15 min after radioligand, 45-123 min, individual monkeys
# [8] = fenfluramine 1.0 mg/kg i.v., individual monkeys
# [9] = fenfluramine 5.0 mg/kg, 45-123 min
# [10] = AR-A000002 2.0 mg/kg i.v. pretreatment vs baseline
# [11] = after pretreatment with AR-A000002 2.0 mg/kg i.v.
# [12] = fenfluramine 1.0 mg/kg i.v., 45-123 min
# T1 sequence (P28222 whole entry): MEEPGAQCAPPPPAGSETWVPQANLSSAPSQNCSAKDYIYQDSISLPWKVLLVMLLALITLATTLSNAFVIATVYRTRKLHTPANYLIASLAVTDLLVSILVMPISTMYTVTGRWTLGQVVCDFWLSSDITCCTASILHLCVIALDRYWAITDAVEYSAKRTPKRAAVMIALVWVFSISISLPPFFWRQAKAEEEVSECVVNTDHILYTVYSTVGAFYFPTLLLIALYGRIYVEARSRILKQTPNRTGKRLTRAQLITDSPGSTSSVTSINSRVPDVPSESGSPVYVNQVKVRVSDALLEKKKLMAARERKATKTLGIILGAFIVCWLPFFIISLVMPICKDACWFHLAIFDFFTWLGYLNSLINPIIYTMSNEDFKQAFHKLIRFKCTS
Compound,Agonist effect (5-HT1B receptor [1]) [%],Antagonist effect (5-HT1B receptor [1]) [%],Specific binding (45-123 min) in the occipital cortex (5-HT1B receptor [2]),"Decrease in specific binding, occipital cortex (5-HT1B receptor [2]; [7])","Displacement (decrease in specific binding), globus pallidus (5-HT1B receptor [2]; [8])",logD [4],Ki (5-HT1B receptor [5]) [nM],other results
[11CH3]N1CCN(c2cccc3c2O[C@H](C(=O)Nc2ccc(N4CCOCC4)cc2)CC3)CC1 [[^11C]3],77.1,18,0.9,16% and 27%,4% and 11%,1.5,0.6,"EC50 (5-HT1B receptor [1]; range 10 μM to 170 pM): 0.97 nM; Decrease in specific binding, occipital cortex (5-HT1B receptor [2]; fenfluramine 5.0 mg/kg i.v. 15 min after radioligand, 45-123 min, individual monkeys): 61% and 62%; Reduction in specific binding, frontal cortex (5-HT1B receptor [2]; [9]): 68%; Reduction in specific binding, hippocampus (5-HT1B receptor [2]; [9]): 34%; Displacement, globus pallidus (5-HT1B receptor [2]; fenfluramine 5.0 mg/kg, individual monkeys): 35% and 49%; Reduction of BPND, globus pallidus (5-HT1B receptor [3]; [10]): 52%; Reduction of BPND, occipital cortex (5-HT1B receptor [3]; [10]): 90%; BPND, globus pallidus (5-HT1B receptor [3]; [11]): 0.23; BPND, occipital cortex (5-HT1B receptor [3]; [11]): 0.07; BPND (SRTM), globus pallidus (5-HT1B receptor [3]; baseline): 0.48; BPND (SRTM), occipital cortex (5-HT1B receptor [3]; baseline): 0.7; Maximum radioactivity in the whole brain (5-HT1B receptor [3]; baseline PET, i.v., one monkey): 2.5 SUV; Time of maximum whole brain radioactivity (5-HT1B receptor [3]; baseline PET, i.v., one monkey): 10 min"
[11CH3]N1CCN(c2cc(F)cc3c(=O)cc(C(=O)Nc4ccc(N5CCOCC5)c(F)c4)oc23)CC1 [[^11C]1],,190,3.2,19%,3% and 9%,2.3,0.13,"Reduction in specific binding, midbrain (5-HT1B receptor [2]; [12]): 2%; Reduction in specific binding, thalamus (5-HT1B receptor [2]; [12]): 33%"
Cc1ccc(N2CCN([11CH3])CC2)c2oc(C(=O)Nc3ccc(N4CCOCC4)cc3)cc(=O)c12 [[^11C]2],53.2,48,,,,1.3,0.4,Specific binding (45-123 min) in the occipital cortex (5-HT1B receptor [6]): 1.9
